melting point: 175.7 to 176.2 °C
SMILES: CC(C)c1nnc2ccc(-c3ocnc3-c3c(F)cccc3F)cn12 [Example 1, 6-[4-(2,6-Difluoro-phenyl)-oxazol-5-yl]-3-isopropyl-[1,2,4]triazolo[4,3-a]pyridine]
